In the test the target is T1, Human M4 (Homo sapiens, UniProt P08173).
T1 construct: expressed in transfected cells
T1 sequence (P08173 1-479): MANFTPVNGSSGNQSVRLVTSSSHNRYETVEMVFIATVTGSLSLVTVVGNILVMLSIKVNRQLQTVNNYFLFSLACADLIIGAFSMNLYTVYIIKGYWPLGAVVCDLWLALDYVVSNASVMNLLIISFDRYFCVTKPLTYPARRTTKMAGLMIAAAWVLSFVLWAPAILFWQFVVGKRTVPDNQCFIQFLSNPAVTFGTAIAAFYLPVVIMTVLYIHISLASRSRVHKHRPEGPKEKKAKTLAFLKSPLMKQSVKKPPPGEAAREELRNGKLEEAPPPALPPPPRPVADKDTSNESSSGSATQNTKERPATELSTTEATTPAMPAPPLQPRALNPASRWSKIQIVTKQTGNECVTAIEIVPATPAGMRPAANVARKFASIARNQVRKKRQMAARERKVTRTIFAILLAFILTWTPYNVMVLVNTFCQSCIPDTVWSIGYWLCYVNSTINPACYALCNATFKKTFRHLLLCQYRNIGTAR
As to the kind of experiment: mAChR M4 cell-based functional assay (calcium flux, PAM mode). Conditions: hM4-Gqi5 CHO-K1 cells; for Emax at 30 µM: CHO-K1, % ACh maximum at 30 μM; for EC50: concentration-dependent increase in the EC20 acetylcholine response. An outline of the steps:
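CHO-K1 cells stably co-expressing human M4 and chimeric Gqi5, Fluo-4 loaded; compound added first (11-point, 1:3 CRC), then EC20 acetylcholine at 144 s and EC80 at 230 s. PAM activity read on FDSS as concentration-dependent increase of EC20 ACh calcium response; EC50 and Emax from four-parameter logistic fit.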

Each structure is given as a SMILES string.

As to `[2H]C1([2H])Oc2ccc(OC3CCN(c4nn5c(=O)cc(C(F)(F)F)nc5cc4C)CC3)cc2OC1([2H])[2H]` [Compound 6, 7-(4-((2,3-Dihydrobenzo[b][1,4]dioxin-6-yl-2,2,3,3-d4)oxy)piperidin-1-yl)-8-methyl-2-(trifluoromethyl)-4H-pyrimido[1,2-b]pyridazin-4-one], the Emax at 30 µM was 91% and the EC50 was 16 nM.
On the same counts, the results for `[2H]C1([2H])Oc2cc(OC3CCN(c4nn5c(=O)ccnc5cc4C)CC3)cc(C)c2OC1([2H])[2H]` [Compound 28, 8-methyl-7-(4-((8-methyl-2,3-dihydrobenzo[b][1,4]dioxin-6-yl-2,2,3,3-d4)oxy)piperidin-1-yl)-4H-pyrimido[1,2-b]pyridazin-4-one] are 93% and 288 nM.
`Cc1cc2nccc(=O)n2nc1N1CC[C@@H](Oc2ccc3c(c2)OCCO3)[C@@H](F)C1` [Compound 34, 7-((3S,4R)-4-((2,3-dihydrobenzo[b][1,4]dioxin-6-yl)oxy)-3-fluoropiperidin-1-yl)-8-methyl-4H-pyrimido[1,2-b]pyridazin-4-one]: the Emax at 30 µM amounted to 116% and the EC50 was 70 nM.
On the same counts, the results for `CNc1c(C)c(N2CCC(Oc3ccc4c(c3)OCCO4)CC2)nn2c(=O)ccnc12` [Compound 123, 7-(4-((2,3-dihydrobenzo[b][1,4]dioxin-6-yl)oxy)piperidin-1-yl)-8-methyl-9-(methylamino)-4H-pyrimido[1,2-b]pyridazin-4-one] are 89% and 556 nM.
On the same counts, the results for `[2H]C1(Oc2ccc3c(c2)OCCO3)CCN(c2nn3c(=O)c(C)c(C)nc3cc2C)CC1` [Compound 60, 7-(4-((2,3-dihydrobenzo[b][1,4]dioxin-6-yl)oxy)piperidin-1-yl-4-d)-2,3,8-trimethyl-4H-pyrimido[1,2-b]pyridazin-4-one] are 91% and 28 nM.
On the same counts, the results for `Cc1cc2nccc(=O)n2nc1N1CCC(Oc2ccc(C(C)C)cc2)CC1` [Compound 90, 7-(4-(4-isopropylphenoxy)piperidin-1-yl)-8-methyl-4H-pyrimido[1,2-b]pyridazin-4-one] are 63% and 1110 nM.
Regarding `COCc1ccc(OC2CCN(c3nn4c(=O)ccnc4cc3C)CC2)cn1` [Compound 76, 7-(4-((6-(methoxymethyl)pyridin-3-yl)oxy)piperidin-1-yl)-8-methyl-4H-pyrimido[1,2-b]pyridazin-4-one], the Emax at 30 µM came out at 60% and the EC50 is more than 10000 nM.
On the same counts, the results for `[2H]C1(Oc2ccc3c(c2)OC([2H])([2H])C([2H])([2H])O3)CCN(c2nn3c(=O)ccnc3c(C)c2COC)CC1` [Compound 102, 7-(4-((2,3-dihydrobenzo[b][1,4]dioxin-6-yl-2,2,3,3-d4)oxy)piperidin-1-yl-4-d)-8-(methoxymethyl)-9-methyl-4H-pyrimido[1,2-b]pyridazin-4-one] are 94% and 170 nM.
On the same counts, the results for `[2H]C1([2H])Oc2ccc(O[C@H]3CCN(c4nn5c(=O)ccnc5cc4C)C[C@H]3F)cc2OC1([2H])[2H]` [Compound 112, 7-((3R,4S)-4-((2,3-dihydrobenzo[b][1,4]dioxin-6-yl-2,2,3,3-d4)oxy)-3-fluoropiperidin-1-yl)-8-methyl-4H-pyrimido[1,2-b]pyridazin-4-one] are 108% and 75 nM.
In the case of `[2H]C1([2H])Oc2ccc(O[C@H]3CCN(c4nn5c(=O)c(F)c(C)nc5cc4C)C[C@@H]3F)cc2OC1([2H])[2H]` [Compound 38, 7-((3S,4S)-4-((2,3-dihydrobenzo[b][1,4]dioxin-6-yl-2,2,3,3-d4)oxy)-3-fluoropiperidin-1-yl)-3-fluoro-2,8-dimethyl-4H-pyrimido[1,2-b]pyridazin-4-one], the Emax at 30 µM was found to be 107% and the EC50 is 211 nM.
On the same counts, the results for `[2H]C1([2H])Oc2cc(OC3CCN(c4nn5c(=O)c(Cl)cnc5cc4C)CC3)cc(C)c2OC1([2H])[2H]` [Compound 27, 3-chloro-8-methyl-7-(4-((8-methyl-2,3-dihydrobenzo[b][1,4]dioxin-6-yl-2,2,3,3-d4)oxy)piperidin-1-yl)-4H-pyrimido[1,2-b]pyridazin-4-one] are 79% and 108 nM.
On the same counts, the results for `[2H]C1(Oc2ccc3c(c2)OCCO3)CCN(c2nn3c(=O)ccnc3cc2C)CC1` [Compound 48, 7-(4-((2,3-dihydrobenzo[b][1,4]dioxin-6-yl)oxy)piperidin-1-yl-4-d)-8-methyl-4H-pyrimido[1,2-b]pyridazin-4-one] are 91% and 46 nM.
On the same counts, the results for `[2H]C1(Oc2ccc3c(c2)OCO3)CCN(c2nn3c(=O)cc(C(F)F)nc3cc2C)CC1` [Compound 66, 7-(4-(benzo[d][1,3]dioxol-5-yloxy)piperidin-1-yl-4-d)-2-(difluoromethyl)-8-methyl-4H-pyrimido[1,2-b]pyridazin-4-one] are 108% and 17 nM.
For `[2H]C1([2H])Oc2ccc(OC3CCN(c4nn5c(=O)ccnc5c(C)c4COC)CC3)cc2OC1([2H])[2H]` [Compound 18, 7-(4-((2,3-Dihydrobenzo[b][1,4]dioxin-6-yl-2,2,3,3-d4)oxy)piperidin-1-yl)-8-(methoxymethyl)-9-methyl-4H-pyrimido[1,2-b]pyridazin-4-one], the Emax at 30 µM amounted to 90% and the EC50 was determined as 162 nM.
For the compound `[2H]C1(Oc2ccc3c(c2)OC([2H])([2H])C([2H])([2H])O3)CCN(c2nn3c(=O)cc(C)nc3cc2C)CC1` [Compound 40, 7-(4-((2,3-dihydrobenzo[b][1,4]dioxin-6-yl-2,2,3,3-d4)oxy)piperidin-1-yl-4-d)-2,8-dimethyl-4H-pyrimido[1,2-b]pyridazin-4-one], the Emax at 30 µM was found to be 118% and the EC50 turned out to be 60 nM.
On the same counts, the results for `Cc1ccc(OC2CCN(c3nn4c(=O)ccnc4cc3C)CC2)cc1F` [Compound 88, 7-(4-(3-fluoro-4-methylphenoxy)piperidin-1-yl)-8-methyl-4H-pyrimido[1,2-b]pyridazin-4-one] are 77% and 383 nM.
Regarding `Cc1cc2nccc(=O)n2nc1N1CC[C@@H](Oc2ccc3c(c2)OCCO3)[C@H](F)C1` [Compound 32, 7-((3R,4R)-4-((2,3-dihydrobenzo[b][1,4]dioxin-6-yl)oxy)-3-fluoropiperidin-1-yl)-8-methyl-4H-pyrimido[1,2-b]pyridazin-4-one], the Emax at 30 µM is 81% and the EC50 stood at 147 nM.
On the same counts, the results for `[2H]C1([2H])Oc2ccc(O[C@@H]3CCN(c4nn5c(=O)ccnc5cc4C)C[C@@H]3F)cc2OC1([2H])[2H]` [Compound 111, 7-((3S,4R)-4-((2,3-dihydrobenzo[b][1,4]dioxin-6-yl-2,2,3,3-d4)oxy)-3-fluoropiperidin-1-yl)-8-methyl-4H-pyrimido[1,2-b]pyridazin-4-one] are 106% and 67 nM.
In the case of `[2H]C1(Oc2ccc3c(c2)OC([2H])([2H])C([2H])([2H])O3)CCN(c2nn3c(=O)ccnc3c(C)c2C)CC1` [Compound 69, 7-(4-((2,3-dihydrobenzo[b][1,4]dioxin-6-yl-2,2,3,3-d4)oxy)piperidin-1-yl-4-d)-8,9-dimethyl-4H-pyrimido[1,2-b]pyridazin-4-one], the Emax at 30 µM turned out to be 97% and the EC50 is 20 nM.
On to `Cc1cc2nccc(=O)n2nc1N1CCC(Oc2ccc(F)cc2)CC1` [Compound 25, 7-(4-(4-fluorophenoxy)piperidin-1-yl)-8-methyl-4H-pyrimido[1,2-b]pyridazin-4-one], for which the Emax at 30 µM was determined as 90% and the EC50 was 296 nM.
On the same counts, the results for `[2H]C1(Oc2ccc3c(c2)OC([2H])([2H])C([2H])([2H])O3)CCN(c2nn3c(=O)ccnc3c(COC)c2C)CC1` [Compound 103, 7-(4-((2,3-dihydrobenzo[b][1,4]dioxin-6-yl-2,2,3,3-d4)oxy)piperidin-1-yl-4-d)-9-(methoxymethyl)-8-methyl-4H-pyrimido[1,2-b]pyridazin-4-one] are 78% and 455 nM.
Consider `[2H]C1([2H])Oc2ccc(OC3CCN(c4nn5c(=O)cc(CC)nc5c(C)c4C)CC3)cc2OC1([2H])[2H]` [Compound 100, 7-(4-((2,3-dihydrobenzo[b][1,4]dioxin-6-yl-2,2,3,3-d4)oxy)piperidin-1-yl)-2-ethyl-8,9-dimethyl-4H-pyrimido[1,2-b]pyridazin-4-one], for which the Emax at 30 µM amounted to 89% and the EC50 worked out at 52 nM.
On the same counts, the results for `Cc1cc2nc(C)c(F)c(=O)n2nc1N1CC[C@@H](Oc2ccc3c(c2)OCCO3)[C@H](F)C1` [Compound 36, 7-((3R,4R)-4-((2,3-dihydrobenzo[b][1,4]dioxin-6-yl)oxy)-3-fluoropiperidin-1-yl)-3-fluoro-2,8-dimethyl-4H-pyrimido[1,2-b]pyridazin-4-one] are 116% and 40 nM.
On the same counts, the results for `Cc1c(N2CCC(Oc3ccc(F)cc3)CC2)nn2c(=O)cc(C(F)F)nc2c1C` [Compound 84, 2-(difluoromethyl)-7-(4-(4-fluorophenoxy)piperidin-1-yl)-8,9-dimethyl-4H-pyrimido[1,2-b]pyridazin-4-one] are 86% and 141 nM.

The Emax is the maximal effect, on the per cent scale that the assay sets. A word on the EC50: it is the concentration needed to bring the measured effect to its halfway point.

(Values after patent publication US11884676B2, “Substituted pyrimido[1,2-b]pyridazines as positive allosteric modulators of the muscarinic acetylcholine receptor M4” (Vanderbilt University, priority 2020, dated 2024).)
